The record followed here is US8748445B2, “Methods for treating glioma” (The UAB Research Foundation, priority 2004, dated 2014).

The structures appear in SMILES notation. “Also recorded” adds a separate entry of the source.

Assay [1] concerns cortical astrocytes. Description: 35S-labeled cystine uptake in cortical astrocytes. It counts as cell-based. The arrangement: dose or concentration left out as unconfirmed. The conditions noted are these: compared with D-54MG glioma cells (FIG. 2B). From the text: System Xc is a glutamate-cystine exchanger and can therefore be inhibited if the outward directed gradient for glutamate is eliminated by exposure to high concentrations of extracellular glutamate. The principal hypothesis in this study is that system Xc serves as a pipeline for cellular cystine uptake, with glutamate release being an obligatory by-product. Cystine uptake is the rate-limiting step for the synthesis of GSH, which is the main intracellular antioxidant that protects cells from oxidative stress and resulting reactive oxygen species (ROS) (Jefferies et al., 2003).

Assay [2] relates to cortical astrocytes. The assay is described as follows: intracellular glutathione in cortical astrocytes. It counts as cell-based. The conditions noted are these: sulfasalazine 50-500 μM; compared to glioma cells (FIG. 2E). Here is the method: To determine if limiting cystine uptake via system Xc reduces the total intracellular glutathione content (GSH and glutathione disulfide), intracellular glutathione concentrations were determined in the presence and absence of sulfasalazine.

In assay [3] the test system is primary astrocyte cultures. The assay is described as follows: growth of primary astrocyte cultures. It counts as cell-based. The conditions noted are these: (S)-4-CPG 0.25 mM and 0.5 mM (FIG. 3C); sulfasalazine data not shown.
For assay [4], the system named is cortical neuronal cultures. Description: survival of cortical neuronal cultures. It counts as cell-based. The conditions noted are these: (S)-4-CPG 0.25 mM and 0.5 mM (FIG. 3C); sulfasalazine data not shown.
A further assay deals with D-54MG glioma cells. Description: BrdU incorporation, immunocytochemical studies. It counts as cell-based, human. The conditions noted are these: DAPI co-staining (FIG. 4B). Here is the method:
BrdU incorporation was measured using an ELISA-based assay. D-54MG cells were grown in the presence or absence of inhibitors for 24 hours and pulsed for 2 hours with BrdU. The cells were cultured for an additional 48 hours and the amount of incorporated BrdU was measured using alkaline phosphatase conjugated to anti-BrdU antibodies. […] The inhibition of DNA synthesis was also seen in immunocytochemical studies.

Assay [5] has as its system glioma cells. The assay is described as follows: cell cycle: total DNA content by flow cytometry (propidium iodide). The assay is classed as cell-based, human. The conditions noted are these: 0.5 mM (FIG. 4D). How it is done: To test whether inhibition of cystine uptake affects a specific stage of the cell cycle, changes in total DNA content were measured using flow cytometry following treatment with 0.5 mM (S)-4-CPG and 0.5 mM sulfasalazine. Cells were fixed with para-formaldehyde and stained with the nuclear marker propidium iodide after incubation with drugs.

Assay [6] deals with glioma cells. Description: cell death by flow cytometry using the Live/Dead assay kit. The assay is classed as cell-based, human. The conditions noted are these: 1 mM, 5 d incubation (FIG. 5E). How it is done: Because an accumulation of ROS can lead to apoptotic cell death, the ability of system Xc inhibitors to induce apoptosis in glioma cells was examined. […] Often apoptosis is dependent on caspase activities, so it was determined whether the system Xc inhibitors induce activated caspase-3, which is the convergent enzyme in the caspase-dependent signaling cascade. […] With 1 mM sulfasalazine, 90% of cells died over the 5 d incubation (FIG. 5E).
Background: In flow cytometry, cells or beads pass a laser one at a time.

Assay [7] deals with D54-MG glioma cells. Description: intracranial D54-MG luciferase xenograft, bioluminescence imaging. It counts as in vivo, CB-17 scid mice. Here is the method:
Therefore, the effect of inhibiting system Xc in an animal model of malignant glioma was examined. In these experiments, both (S)-4-CPG or sulfasalazine were used. […] In the described in vivo experiments, human gliomas were xenografted into the cranium of either female CB-17 scid mice or nude mice, both of which are frequently used animal models for malignant gliomas. The intracranial growth of tumors was assessed using the recently developed […] methodology for visualizing tumor growth.
In one set of in vivo experiments, D54-MG glioma cells were stably transfected with the firefly luciferase gene under the control of the CMV promoter. One-half million cells were stereotactically implanted into the cranium of each CB-17 scid mouse. After 7 days, animals were randomized into three groups of 12 animals each. The control group received an intraperitoneal injection of 1 ml dose of saline twice daily. The two test groups received an 8 mg dose of sulfasalazine twice daily for either 1 or 3 weeks. Animals were imaged for tumor size, typically once per week, using a bioluminescence imaging system (IVIS system; Xenogen). Light emission from the tumor regions (in relative photons/second) were quantified using Living Image, version 2.20.1, software provided by Xenogen and plotted as a function of time.

A further assay relates to U87-MG. Description: intracranial U87-MG luciferase xenograft, bioluminescence imaging. It counts as in vivo, CB-17 nude mice. The following applies: 8 mg twice daily for 3 weeks, then 1 dose per day (FIG. 7B). Here is the method: These U87-MG cells were similarly implanted intracranially as described above, but this time into CB-17 nude mice. After 7 days, animals were randomized into […]. The control group received an intraperitoneal injection of 1 ml dose of saline twice daily. The two test groups received an 8 mg dose of sulfasalazine (in 1 ml saline) twice daily for 3 weeks, followed by 1 dose per day of 8 mg sulfasalazine thereafter. Animals were imaged for tumor size, typically once per week, using a bioluminescence imaging system (IVIS system; Xenogen). Light emission from the tumor regions (in relative photons/second) were quantified using Living Image, version 2.20.1, software provided by Xenogen and plotted as a function of time.

Assay [8] relates to D54-MG glioma cells. Description: histological markers of cell death and proliferation in tumor sections. The assay is classed as in vivo, CB-17 scid mice. An excerpt: To further examine effects of sulfasalazine in vivo at the cellular level, the tumor sections were examined with commonly used histological markers for cell death, including ApopTag/methyl green (FIGS. 8A and 8B) and terminal deoxynucleotidyl transferase-mediated biotinylated UTP nick end labeling (TUNEL) (FIGS. 8C and 8D), and proliferation (Ki-67) (FIGS. 8E and 8F). Multiple fields from several serial sections from two control group and two treatment group animals (see description above regarding FIG. 7A) were examined. […] Indeed, necrosis is a hallmark of grade IV gliomas and a necessary feature for their histopathological grading as such. At a higher resolution (40×), significant cell death was observed as evident from TUNEL (FIG. 8C) and caspase-3 staining (data not shown). In these figures, TUNEL staining is indicated by a lighter green color against a background of DAPI staining.

For the next assay, the system named is glioma xenograft tumors. The assay is described as follows: tumor size by hematoxylin-eosin staining of brain sections. The assay is classed as in vivo, mice. The conditions noted are these: 8 mg in 1 ml saline twice per day; 30 days after tumor induction (FIGS. 7C, 7D). Here is the method:
To validate that these experiments represent, at least qualitatively, changes in tumor size, two animals each from the control and treatment groups were sacrificed at 30 days after tumor induction. Histological sections were obtained and traditional hematoxylin-eosin (H&E) staining were performed. FIGS. 7C and 7D show the results for the control group (saline treatment only) and the treatment group (8 mg sulfasalazine in 1 ml saline, twice per day).

`O=C(O)c1cc(/N=N/c2ccc(S(=O)(=O)Nc3ccccn3)cc2)ccc1O` [sulfasalazine]: the “inhibition of cystine uptake in cortical astrocytes” value in the assay on cortical astrocytes [1] is recorded as “to a significantly lesser degree; also recorded: only a limited inhibition”. Moreover, in the assay on cortical astrocytes [2], the “intracellular glutathione concentration in astrocytes” value was “a smaller effect”. In addition, in [3], the “growth of primary astrocyte cultures” value was “Neither (S)-4-CPG (FIG. 3C) nor sulfasalazine (data not shown) affected”. Also, the “survival/growth of cortical neuronal cultures” value in [4] is on record as “Neither (S)-4-CPG (FIG. 3C) nor sulfasalazine (data not shown) affected”. Further, the “incorporation of BrdU, immunocytochemistry” value with D-54MG glioma cells was “virtually abolished incorporation of BrdU”. For the same compound, the “cell cycle distribution (total DNA content)” value in the assay on glioma cells [5] is “a reduction of cells in G2 phase and an increase in cells in S phase”. In addition, the cells died in the assay with glioma cells [6] is given as 90%. In addition, in the assay on D54-MG glioma cells [7] (8 mg intraperitoneal twice daily for either 1 or 3 weeks, from day 7 (FIG. 7A)), the “tumor expansion (relative bioluminescence)” value is given as “significantly reduced”. In the assay on D54-MG glioma cells [7] (retreated at day 53 for 3 days after termination of treatment (FIG. 7A)), the “tumor growth after retreatment” value was “again reduced after retreatment”. In the assay on U87-MG, the “tumor growth by bioluminescence imaging” value was “reduce tumor growth significantly”. Further, the “tumor necrosis (ApopTag)” value in the assay on D54-MG glioma cells [8] (sulfasalazine-treated animals of FIG. 7A (FIG. 8B)) is given as “almost no evidence for necrosis”. Further, in the assay on D54-MG glioma cells [8] (sulfasalazine-treated tumor sections, similar to control, no significant difference), the Ki-67 index entry is “approximately 15”. Moreover, in the assay with D54-MG glioma cells [8] (sulfasalazine-treated versus control (FIG. 8D), not statistically significant), the “TUNEL labeling in tumor sections” value is recorded as “reduced TUNEL”. In the assay with D54-MG glioma cells [8] (sulfasalazine-treated versus control, data not shown), the “caspase-3 labeling in tumor sections” value is “reduced”. Moreover, the “tumor size versus control group, H&E staining” value in the assay on glioma xenograft tumors is recorded as “significantly smaller”.
